Literature values, collected in patent publication US20260355187A1, “LURBINECTEDIN AND DOXORUBICIN COMBINATION” (PHARMA MAR, S.A., priority 2022, published 2026).
Where a name gives a salt, the structure may show the parent alone.

How the values were obtained:
[1] = tested on: tumour-derived cell lines; conditions: in vitro
[2] = tested on: NCI panel of 36 cell lines
CYP3A4 = conditions: role: substrate; human microsomes, in vitro
CYP2E1 = conditions: role: substrate; human microsomes, in vitro; after CYP3A4
other CYP isoenzymes = conditions: role: substrate; human microsomes, in vitro
[3] = tested on: tumour-associates macrophages; conditions: by inhibiting active transcription
cytochrome P450 CYP3A4 = conditions: role: substrate
CYP2D6 = conditions: role: substrate
P-glycoprotein (P-gp) = conditions: role: substrate
[4] = tested on: CYP3A4, CYP2D6, and/or P-gp; conditions: role: substrate; inhibitors e.g. verapamil

| half maximal inhibitory concentration (IC50), range in words ([1]; broad selection of tumour-derived cell lines) | IC50 ([1]; median over tumour-derived cell lines) | Contribution of CYP2E1 to metabolism (CYP2E1) | Estimated contribution of the other CYP isoenzymes to metabolism (other CYP isoenzymes) | Substrate of CYP3A4 (cytochrome P450 CYP3A4) | Substrate of CYP2D6 (CYP2D6) | Substrate of P-glycoprotein (P-gp) (P-glycoprotein (P-gp)) | SMILES | COMPARE analysis ([2]; against other 98 standard anticancer agents) | COMPARE correlation with trabectedin (S-rank) ([2]; versus trabectedin) | Contribution of CYP3A4 to metabolism (CYP3A4) | Cytokine production in tumour-associated macrophages [3] | Clinical interaction with inhibitors of CYP3A4, CYP2D6, and/or P-gp [4] |
| --- | --- | --- | --- | --- | --- | --- | --- | --- | --- | --- | --- | --- |
| low to very low nanomolar range | ~0.1 nM | followed by CYP2E1 | negligible |  |  |  | COc1ccc2[nH]c3c(c2c1)CCN[C@]31CS[C@@H]2c3c(OC(C)=O)c(C)c4c(c3[C@H](COC1=O)N1[C@@H]2[C@H]2c3c(cc(C)c(OC)c3O)C[C@@H]([C@@H]1O)N2C)OCO4 [lurbinectedin] | negative | > 0.8 | major CYP isoform involved in the metabolism | downregulates IL-6, IL-8, CCL2, and VEGF |  |
|  |  |  |  | major substrate | major substrate | major substrate | COc1cccc2c1C(=O)c1c(O)c3c(c(O)c1C2=O)C[C@@](O)(C(=O)CO)C[C@@H]3O[C@H]1C[C@H](N)[C@H](O)[C@H](C)O1 [doxorubicin, 5,12-Naphthacenedione, 10-[(3-amino-2,3,6-trideoxy-α-L-lyxo-hexopyranosyl)oxy]-7,8,9,10tetrahydro-6,8,11-trihydroxy-8-(hydroxylacetyl)-1-methoxy-, hydrochloride (8S-cis)] |  |  |  |  | increased concentration and clinical effect of doxorubicin |
